Assay results from ChEMBL document CHEMBL1201862, “PubChem BioAssay data set” (2004).
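Cultured in 96-well plates, cells were exposed to test compound for 48 hours across five concentrations. At the GI50, growth is halved.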 Calls of active or inactive are those of the source. No stated cut-off is given here; in the data, active = GI50 up to about 1.1 µM and inactive = higher.

Tests used:
Assay in all cases: inhibition of tumour cell growth, NCI panel, 48 h
786-0 = system: 786-0
A498 = system: A498
A549 = system: A549
ACHN = system: ACHN
Hs-578T = system: Hs-578T
K562 = system: K562
KM-20L2 = system: KM-20L2
MDA-MB-231 = system: MDA-MB-231
MDA-N = system: MDA-N
NCI-H23 = system: NCI-H23
NCI-H460 = system: NCI-H460
NCI-H522 = system: NCI-H522
OVCAR-3 = system: OVCAR-3
PC-3 = system: PC-3
SK-MEL-28 = system: SK-MEL-28
SK-MEL-5 = system: SK-MEL-5
SN12C = system: SN12C
SNB-75 = system: SNB-75
TK-10 = system: TK-10
UACC-257 = system: UACC-257

SMILES | GI50 (786-0) | GI50 (A498) | GI50 (A549) | GI50 (ACHN) | GI50 (Hs-578T) | GI50 (K562) | GI50 (KM-20L2) | GI50 (MDA-MB-231) | GI50 (MDA-N) | GI50 (NCI-H23) | GI50 (NCI-H460) | GI50 (NCI-H522) | GI50 (OVCAR-3) | GI50 (PC-3) | GI50 (SK-MEL-28) | GI50 (SK-MEL-5) | GI50 (SN12C) | GI50 (SNB-75) | GI50 (TK-10) | GI50 (UACC-257)
COC1C(OC(=O)/C=C/C=C/C=C/C=C/C(=O)O)CCC2(CO2)C1C1(C)OC1CC=C(C)C (stereo not given) | 20.5 µM (inactive) | > 100 µM (inactive) | 18.5 µM (inactive) | 18.5 µM (inactive) | 40.2 µM (inactive) | 21.1 µM (inactive) | 32.1 µM (inactive) | 21.3 µM (inactive) | 20.5 µM (inactive) | 25 µM (inactive) | 0.112 µM (active) | 23.2 µM (inactive) | 29.2 µM (inactive) | 15.2 µM (inactive) | 18.2 µM (inactive) | 18.5 µM (inactive) | 28.1 µM (inactive) | 25.3 µM (inactive) | 57.9 µM (inactive) | 34 µM (inactive)
CC1=C(N2CC2)C(=O)C(C)=C(N2CC2)C1=O | 0.0702 µM (active) | 0.178 µM (active) | 0.112 µM (active) | 0.0315 µM (active) | 0.933 µM (active) | 0.254 µM (active) | 0.178 µM (active) | 4.01 µM (inactive) | 0.0998 µM (active) | 0.0412 µM (active) | < 0.0111 µM (active) | 0.0998 µM (active) | 0.249 µM (active) | 0.282 µM (active) | 0.356 µM (active) | 0.155 µM (active) | 0.113 µM (active) | 0.309 µM (active) | 0.289 µM (active) | 0.465 µM (active)
